The structures appear in SMILES notation.

The values below come from patent US20210114029A1, “DEVICES, SYSTEMS, AND METHODS FOR HIGH THROUGHPUT SINGLE CELL ANALYSIS” (Duke University, priority 2017, published 2021).

The test system of one assay is K562 cells. Nature of the assay: Growth of K562 single cell colonies in microfluidic trap array in the presence of Imatinib. To be noted: K562 cells grown with 0.1 μM, 0.3 μM, 0.5 μM Imatinib or control; FIG. 20. Type of assay: cell-based. The text has this:
(§1) Cells were introduced to the array and transferred to the interior chambers with a gentle trap and transfer technique that is similar to previously reported methods (Dura, et al. (2014), “Deformability-based microfluidic cell pairing and fusion”, Lab. Chip 14:2783). Specifically, we first captured cells at the entrance of the traps, and next transferred the cells into the chambers with a brief pressure burst, causing the cells to squeeze through the narrow constrictions and move into the interior chambers. The widths of the constrictions were adjusted in the range of 3-6 microns, depending on the cell type the device was designed to capture. […] Flow control was achieved by adjusting negative pressure at the outlet, which allowed cells to be pipetted directly in the inlet reservoir with minimal losses from dead volume. Additionally, this approach allowed us to wash the cells from the inlet reservoir once the array was fully populated. […]
(§2) Cells were imaged twice per day and immediately returned to the incubator after each imaging cycle, requiring around 5-10 minutes for each chip. After 7 days, the imaging dataset was analyzed by custom computer vision software written in Python using a pre-trained Mask_RCNN image segmentation model. […]

The test system of a further assay is MOLM 13 cells. Nature of the assay: Growth of MOLM 13 cells in microfluidic chambers in the presence of Quizartinib. To be noted: drug vs control medium, images FIG. 22A/22B. It is filed as cell-based.
From the text: as §1, §2

Consider `Cc1ccc(NC(=O)c2ccc(CN3CCN(C)CC3)cc2)cc1Nc1nccc(-c2cccnc2)n1` [Imatinib], for which, in the assay with K562 cells, the “growth rate distribution of colonies” value is “decreased growth rate with increasing drug concentration”.

With `CC(C)(C)c1cc(NC(=O)Nc2ccc(-c3cn4c(n3)sc3cc(OCCN5CCOCC5)ccc34)cc2)no1` [Quizartinib], the “outgrowth of clones in the presence of the drug” value in the assay on MOLM 13 cells was “A single clone is observed to grow out in the presence of the drug”.
